No end group written: not given here.
Legend:
[1] = tested on: Crohn's disease antibody (serum antibodies); assay: MAP antigen-ELISA of Z300 peptide (Example 6(4)); assay type: binding, human
Method: Therefore, in order to confirm that human nuclear protein (HZF300) is a protein simulated or mimicked by CDP3 peptide, the peptide (Z300 peptide) having the amino acid sequence of the 126-138 amino acid region of HZF300 was prepared in the form of a MAP peptide and the MAP antigen ELISA was carried out using 20 Crohn's disease patient serum samples, 20 ulcerative colitis patient serum samples, and 20 healthy volunteer serum samples.
First, each human serum was diluted 101-fold with the sample diluent (described hereinbefore) and 100 μL/well of the solution was added to the MAP plate prepared by immobilizing the said MAP peptide. Then, the procedure of the secondary reaction and subsequent operation described in Example 6(2) was followed to investigate the reactivity of the MAP peptide to various kinds of serum antibodies.

Crohn's disease antibody [2] = assay: Reaction inhibition test with one amino acid-substituted MAP peptides on CDP3 MAP plate (Example 6(2)); assay type: binding, human; conditions: inhibitor MAP peptide 100 μg/mL
Method: Referring to the amino acid sequence of CDP peptide, in order to determine the sequence necessary for the specific reactivity to Crohn's disease antibody, the following reaction inhibition test was performed using each of the one amino acid-substituted MAP peptides prepared as above as the reaction inhibitor.
More particularly, using the MAP plate prepared by immobilizing the MAP peptide of CDP3 (see Example 2(1)) as the antigen plate, the test was performed by 3 reaction steps. In the primary reaction, the Crohn's disease patient serum was diluted 100-fold with a sample diluent containing the one amino acid-substituted MAP peptide in a concentration of 100 μg/mL (0.1 M Tris-buffer containing 0.5 M sodium chloride, 1.5% casein, 2% normal goat serum and 0.2% Tween 20) and reacted at 25° C. for one hour. In the secondary reaction, 100 μL/well of the primary reaction mixture was added to the plate and reacted at 25° C. for one hour, after which the plate was washed 3 times. In the tertiary reaction, 100 μL/well of HRP-labeled anti-human IgG (Fc)-specific antibody diluted 5,000-fold in an enzyme-labeled antibody diluent (Tris buffer containing 0.14 M sodium chloride, 0.5% BAS, 5% normal goat serum and 0.05% Tween 20) was added to the plate, and reacted at 25° C. for 1 hour, followed by 3 rounds of washing. Detection was performed as in Example 2(1) to measure the reaction-inhibiting activity of the one amino acid-substituted MAP peptide.

[3] = tested on: Crohn's disease patient serum antibody; assay: Phage ELISA of CD-binding peptide display phage clones with serum samples; parameters: species or system human; conditions: 20 Crohn's disease, 20 ulcerative colitis, 20 healthy volunteer serum samples
Method: Using the monoclonal CD-binding peptide display phage obtained as above, phage ELISA was carried out with the same healthy volunteer serum pool and Crohn's disease patient serum pool as used in the above biopanning (cf. (i)).
In the ELISA, an anti-phage antibody (Pharmacia) was immobilized on a 96-well microtiter plate in the first place. Specifically, this immobilization was carried out by adding an anti-phage antibody (Pharmacia) solution prepared in a 1 μg/ml concentration with (D)-PBS, to the plate, 100 μl per well. The plate was left sitting at 4° C. overnight and then washed, and after addition of 300 μl of blocking solution ((D)-PBS containing 1% BSA and 5% sorbitol), further left sitting at 4° C. overnight.
The primary reaction was carried out as follows. Thus, 10 μl of the phage solution in (ii) was added to 90 μl of phage ELISA buffer ((D)-PBS containing 1% BSA, 0.05% Tween 20 and 10% normal goat serum), the mixture was added to each well coated with said anti-phage antibody, and the reaction was conducted at 37° C. for 1 hour. After completion of the primary reaction, the plate was washed 4 times and the secondary reaction was carried out. The secondary reaction was performed by adding the mixture containing 1 μl of serum (healthy volunteer serum or Crohn's disease patient serum) and 100 μl of phage ELISA buffer, to each well, and allowing the reaction to proceed at 37° C. for 1 hour. After completion of the secondary reaction, the plate was washed 4 times and the tertiary reaction was carried out. The tertiary reaction was conducted by adding HRP (horseradish peroxidase)-labeled anti-human IgG (Fc)-specific antibody, diluted 40,000-fold in phage ELISA buffer (20 ng/ml) in advance, to the plate, 100 μl per well, and allowing the reaction to proceed at 37° C. for one hour. After completion of the tertiary reaction, the plate was washed and a color development reaction was carried out. The color development was conducted by adding TMB (3,3′,5,5′-tetramethylbenzidine) solution to the plate, allowing the reaction to proceed at room temperature for 10 minutes, and stopping the reaction with a stopper (1N sulfuric acid). The plate after reaction stopping was measured for absorbance (OD 450 nm) with a plate reader to evaluate the reactivity with the serum antibody.
For the 5 clones thus selected, the reactivity (ELISA) with the respective serum samples (Crohn's disease patient serum, ulcerative colitis patient serum, and healthy volunteer serum) was evaluated.

[4] = tested on: Crohn's disease antibody (serum IgG); assay: MAP peptide ELISA of CDP-1a, CDP-5a and VATE-201 (Example 4); assay type: binding, human; conditions: 20 Crohn's disease, 20 ulcerative colitis, 20 healthy volunteer serum samples
From the text: Therefore, the following peptides (CDP-1a peptide, CDP-5a peptide, VATE-201 peptide) were respectively synthesized in the MAP form (multiple antigenic peptides) by the same procedure as described in Example 1(3) (FIG. 9), and in accordance with the protocol of Example 2(1), the reactivity of each MAP peptide to various serum samples (Crohn's disease patient sera, ulcerative colitis patient sera and healthy volunteer sera) was investigated by ELISA.
As test sera, 20 Crohn's disease patient serum samples were used and, as control sera, 20 ulcerative colitis serum samples and 20 healthy volunteer serum samples were used.

[5] = tested on: Crohn's disease antibody (serum antibodies); assay: MAP antigen-ELISA of TO3965 peptide (Example 7(4)); assay type: binding, human; conditions: for reactions with ulcerative colitis patient sera and healthy volunteer sera: 20 ulcerative colitis, 20 healthy volunteer serum samples
Method: At this junction, in order to endorse the assumption that rice allergen proteins are proteins simulated or mimicked by CDP4 peptide, a peptide (TO3965 peptide) having an amino acid sequence corresponding to the 99-111 amino acid region of Rice seed allergen RA14 (FIG. 16) was prepared in the form of a MAP peptide and the MAP antigen-ELISA was performed using 20 Crohn's disease patient serum samples, 20 ulcerative colitis patient serum samples, and 20 healthy volunteer serum samples.
Except that a MAP antigen plate prepared by immobilizing the MAP peptide of TO3965 on the plate was used as the antigen plate, the MAP antigen-ELISA was carried out in otherwise the same manner as in Example 6(4).

Crohn's disease antibody [6] = assay: Test for inhibition of the antigen-antibody reaction between CDP-1a peptide and Crohn's disease antibody (Example 5); assay type: binding, human; conditions: sera No. 8, No. 9, No. 14; reaction inhibitor 100 μg/ml
Method: To confirm the reactivity of VATE-201 obtained in Example 4, a test for inhibition of the antigen-antibody reaction between CDP-1a peptide and Crohn's disease antibody was carried out using VATE-201 peptide.
More particularly, the MAP plate prepared by immobilizing CDP-1a MAP peptide was used as the antigen plate (see Example 2(1)). On the other hand, 1 μL of each serum sample was added to 100 μL of a casein solution ((D)-PBS containing 0.1% casein and 1% Triton X-100) containing the MAP peptide of VATE-201 (reaction inhibitor) at a concentration of 100 μg/ml and the reaction was carried out at 37° C. for one hour. The whole amount of the reaction mixture thus obtained was added to the above MAP plate and ELISA was performed in the same manner as in Example 2(1). As a comparative experiment, using the MAP peptide of CDP-1a in lieu of the MAP peptide of VATE-201 as said reaction inhibitor, ELISA was carried out in otherwise the same manner.

Crohn's disease antibody [7] = assay: Test for inhibition of the antigen-antibody reaction between CDP4 peptide and Crohn's disease antibody using TO3965 peptide (Example 7(5)); assay type: binding, human; conditions: sera Nos. 3, 6, 15, 17 and 20
Method: To confirm the reactivity of TO3965 peptide to Crohn's disease antibody, a test for inhibition of the antigen-antibody reaction between CDP4 peptide and Crohn's disease antibody was performed using TO3965 peptide as a reaction inhibitor as in Example 6(5).

Crohn's disease antibody [8] = assay: Test for inhibition of the antigen-antibody reaction between CDP3 peptide and Crohn's disease antibody using Z300 peptide (Example 6(5)); assay type: binding, human; conditions: sera No. 2, No. 7, No. 8; inhibitor 100 μg/ml
Method: To verify the reactivity of Z300 peptide to Crohn's disease antibodies, a test for inhibition of the antigen-antibody reaction between CDP3 peptide and Crohn's disease antibody was performed using Z300 peptide.
More particularly, the MAP plate prepared by immobilizing the MAP peptide of CDP3 on a plate (Example 2(1)) was used. To 100 μL of the sample diluent containing 100 μg/ml of Z300 MAP peptide (reaction inhibitor) was added 1 μL of the serum sample and the reaction was carried out at 25° C. for one hour. The whole amount of this reaction mixture was added to the plate and ELISA was performed in the same manner as in Example 6(2). As a comparative experiment, ELISA was similarly performed using the MAP peptide of CDP3, in lieu of the MAP peptide of Z300, as said reaction inhibitor.

[9] = biological target: Crohn's disease patient serum No. 8 (serum antibody); assay: inhibition ELISA; serum pre-incubated with 100 ug/mL MAP peptide, then CDP3 MAP plate; grade of reaction-inhibiting activity
[10] = biological target: Crohn's disease patient serum No. 2 (serum antibody); assay: as above
[11] = biological target: Crohn's disease patient serum No. 7 (serum antibody); assay: as above

Question: “A E G E L R Q S D G Q Y Q M (AEGELRQSDGQYQM) [CDP3]” was tested. Which “reactivity of Crohn's disease patient sera to the peptide” value ([1]; Crohn's disease patient serum No. 2, No. 7 and No. 8) did it give?
Answer: The value was “strong reactivity”.

Question: What about the “reaction-inhibiting activity, Patient serum sample No. 2” value (Crohn's disease antibody [2]) of the same molecule?
Answer: The value was “+++ (+++: reaction-inhibiting activity = 70%)”.

Question: What about the “reaction-inhibiting activity, Patient serum sample No. 7” value (Crohn's disease antibody [2]) of the same molecule?
Answer: The value was “+++ (+++: reaction-inhibiting activity = 70%)”.

Question: What about the “reaction-inhibiting activity, Patient serum sample No. 8” value (Crohn's disease antibody [2]) of the same molecule?
Answer: The value was “+++ (+++: reaction-inhibiting activity = 70%)”.

Question: Which “specificity to Crohn's disease patient serum (phage ELISA reactivity)” value (“specificity” for short) [3] does the source give for AEGEL GLLAQQMDY ADPA [CD-1] here?
Answer: The value was “high specificity to Crohn's disease patient serum”.

Question: With AEGEL RLVGQQVMQ GDPA [CD-5] as the molecule, how does the “specificity” value [3] read?
Answer: The value was “high specificity to Crohn's disease patient serum”.

Question: AEGEL RQSDGQYQM GDPA [CD-3] was tested. Which “specificity” value [3] did it give?
Answer: The value was “high specificity to Crohn's disease patient serum”.

Question: AEGEL YRWLPPSSA GDPA [CD-2] was tested. Which “specificity” value [3] did it give?
Answer: Its value is “high specificity to Crohn's disease patient serum”.

Question: AEGELGLLAQQMDYADP [CDP-1a] was tested. Which “ELISA reactivity to serum samples” value [4] did it give?
Answer: The value was “ELISA reactivities mutually alike”.

Question: How did the “ELISA reactivity to serum samples” value [4] turn out when AEGELRLVGQQVMQGDP [CDP-5a] was run?
Answer: The value was “ELISA reactivities mutually alike”.

Question: Which results are given for “CDP4: equivalent of CD4 peptide, SEQ ID NO:34 (AEGELGGIYQDLVS; Phage Library)”?
Answer: reactions with ulcerative colitis patient sera and healthy volunteer sera [5]: did not show definite reactions; reactivity of Crohn's disease patient sera to the peptide ([5]; Crohn's disease patient serum Nos. 3, 6, 15, 17 and 20): strong reactivity

Question: RLDLIAQQMMPEVR [VATE-201] was tested. Which “inhibition of the reactivity of Crohn's disease serum samples with the CDP-1a MAP plate” value (Crohn's disease antibody [6]) did it give?
Answer: The value was “invariably inhibited the reactivity”.

Question: What about the “ELISA reactivity to serum samples” value [4] of the same molecule?
Answer: The value was “ELISA reactivities mutually alike”.

Question: For “TO3965: peptide with the amino acid sequence of the 99-111 amino acid region of Rice seed allergen RA14, SEQ ID NO:42 (HMVGGIYRELGAT; Rice; Rice Seel Allergen RA14)”, which “inhibition of the reactivity of Crohn's disease patient serum samples to the CDP4 MAP plate” value (Crohn's disease antibody [7]) is on record?
Answer: Its value is “inhibition everything of the reactivity”.

Question: What about the “reactions with ulcerative colitis patient sera and healthy volunteer sera” value [5] of the same molecule?
Answer: The value was “did not show definite reactions”.

Question: With “Z300: peptide having the amino acid sequence of the 126-138 amino acid region of HZF300, SEQ ID NO:31 (LVCQGDGQLQRFL; Kruppel-like Zinc Finger Protein 300; listed as Homo sapiens)” as the molecule, how does the “reactions with ulcerative colitis patient sera and healthy volunteer sera” value ([1]; 20 ulcerative colitis, 20 healthy volunteer serum samples) read?
Answer: Its value is “did not show definite reactions”.

Question: And the “inhibition of the reactivity of Crohn's disease patient sera to the CDP3 MAP plate” value (Crohn's disease antibody [8])?
Answer: Its value is “inhibited the reactivity of all Crohn's disease patient sera”.

Question: Which results are given for AEGELRQSDGQYAM (also: MAP: 8 copies as branches on a lysine core) [MAP peptide of CDP3-13]?
Answer: reaction-inhibiting activity [9]: 50 to 70%; reaction-inhibiting activity [10]: 30 to 50%

Question: With AEGELRQSAGQYQM (also: MAP: 8 copies as branches on a lysine core) [MAP peptide of CDP3-9] as the molecule, how does the reaction-inhibiting activity [11] read?
Answer: Its reaction-inhibiting activity is 30 to 50%.

Question: AEGELRQSDAQYQM (also: MAP: 8 copies as branches on a lysine core) [MAP peptide of CDP3-10] was tested. Which reaction-inhibiting activity [10] did it give?
Answer: The reaction-inhibiting activity was 30 to 50%.

Question: With AEGELRQSDGAYQM (also: MAP: 8 copies as branches on a lysine core) [MAP peptide of CDP3-11] as the molecule, how does the reaction-inhibiting activity [11] read?
Answer: Its reaction-inhibiting activity is 30 to 50%.

Reference: US20040175763A1, “Crohn's disease antibody-binding peptide and method of examining crohn's disease” (priority 2001, published 2004)
